According to ChEMBL document CHEMBL4138233, “Purine analogs targeting the guanine riboswitch as potential antibiotics against Clostridioides difficile” (Eur J Med Chem, 2018):
In brackets after ≈: the same amount, converted by molar mass. Activity calls are given as the source filed them. No cut-off for these calls is given here.

Legend:
[1] = Binding affinity to Clostridium difficile [5'-32P]guaA riboswitch by polyacrylamide gel electrophoresis method; set-up: species or system Clostridioides difficile
Clostridioides difficile [2] = assay: Antibacterial activity against Clostridium difficile ATCC 700057 by broth microdilution method; format: functional
Clostridioides difficile [3] = assay: Antibacterial activity against Clostridium difficile ATCC 700057 up to 5000 ug/ml by broth microdilution method; format: functional, organism-based
[4] = Binding affinity to Bacillus subtilis guaA riboswitch
[5] = Binding affinity to Staphylococcus aureus [5'-32P]guaA riboswitch by polyacrylamide gel electrophoresis method

Row | Structure (SMILES) | Kd [1] [µM] | MIC (Clostridioides difficile [2]) [µg/mL] | Activity (Clostridioides difficile [3]) | Kd [4] [µM] | Kd [5] [µM]
1 | Nc1nc(NC2CCC2)c2nc[nH]c2n1 | > 1000 | 1250 (≈ 6.12 mM) |  |  | 
2 | COCCCNc1nc2[nH]cnc2c(=O)[nH]1 | 2.2 |  | inactive |  | 
3 | CCCNc1nc(N)nc2[nH]cnc12 | 68.3 | 625 (≈ 3.25 mM) |  |  | 
4 | COc1ccc(CNc2nc(N)nc3[nH]cnc23)cc1 | 71.3 | 313 (≈ 1.16 mM) |  |  | 
5 | CN(C)C(=O)Nc1nc2[nH]cnc2c(=O)[nH]1 | 16.4 | 1250 (≈ 5.63 mM) |  |  | 
6 | Nc1nc2[nH]cnc2c(=O)[nH]1 [GUANINE] | 0.002 |  |  | 0.005 | 
7 | O=c1[nH]c(NC2CCCCC2)nc2[nH]cnc12 | 6.5 | 78 (≈ 0.334 mM) |  |  | 
8 | O=c1[nH]c(NCCc2ccc(O)cc2)nc2[nH]cnc12 | > 1000 | 1250 (≈ 4.61 mM) |  |  | 
9 | O=C(O)CCCC(=O)Nc1nc2[nH]cnc2c(=O)[nH]1 | 0.45 |  | inactive |  | 
10 | O=c1[nH]c(NCc2ccccn2)nc2[nH]cnc12 | 24.4 |  | inactive |  | 
11 | Nc1nc2ncsc2c(=O)[nH]1 | > 1000 | 78 (≈ 0.464 mM) |  |  | 
12 | CCC(=O)Nc1nc2[nH]cnc2c(=O)[nH]1 | 0.56 |  | inactive |  | 
13 | CCCCNc1nc(O)c2[nH]cnc2n1 | 4 | 625 (≈ 3.02 mM) |  |  | 
14 | Nc1nc(NCc2ccccc2)c2[nH]cnc2n1 | 0.93 |  | inactive |  | 
15 | NC(=O)Nc1nc2[nH]cnc2c(=O)[nH]1 | 21 |  | inactive |  | 
16 | O=C(NCCO)Nc1nc2[nH]cnc2c(=O)[nH]1 | 2.67 |  | inactive |  | 
17 | Nc1nc(NCc2ccc(F)cc2)c2nc[nH]c2n1 | 25.2 | 313 (≈ 1.21 mM) |  |  | 
18 | CC(=O)Nc1nc(=O)c2[nH]cnc2[nH]1 | 1.05 |  | inactive |  | 
19 | Cn1cnc2c(O)nc(N)nc21 [9-Methylguanine] | 8.1 |  | inactive |  | 
20 | NCCCNc1nc(N)nc2[nH]cnc12 | 0.32 |  | inactive |  | 
21 | O=C(NCCN1CCOCC1)Nc1nc2[nH]cnc2c(=O)[nH]1 | 27.6 | 1250 (≈ 4.07 mM) |  |  | 

Row | Structure (SMILES) | Kd [1] [µM] | MIC (Clostridioides difficile [2]) [µg/mL] | Activity (Clostridioides difficile [3]) | Kd [4] [µM] | Kd [5] [µM]
22 | Nc1nc(NCC2CC2)c2nc[nH]c2n1 | 68.9 | 312 (≈ 1.53 mM) |  |  | 
23 | Nc1nc(O)c2ncn(Cc3ccccc3)c2n1 | > 1000 |  | inactive |  | 
24 | O=c1[nH]c(NCCCO)nc2[nH]cnc12 | 9.8 |  | inactive |  | 
25 | O=c1[nH]c(NC2CCC2)nc2[nH]cnc12 | 2.4 | 1250 (≈ 6.09 mM) |  |  | 
26 | CNC(=O)Nc1nc2[nH]cnc2c(=O)[nH]1 | > 1000 |  | inactive |  | 
27 | Nc1nc2scnc2c(=O)[nH]1 | 7.4 |  | inactive |  | 
28 | Nc1nc(NC2CC2)c2nc[nH]c2n1 | 25 | 1250 (≈ 6.57 mM) |  |  | 
29 | O=C(Nc1nc2[nH]cnc2c(=O)[nH]1)N1CCOCC1 | 1.81 |  | inactive |  | 
30 | CN(C)c1nc(N)nc2[nH]cnc12 | 48.3 |  | inactive |  | 
31 | CN(C)CCNC(=O)Nc1nc2[nH]cnc2c(=O)[nH]1 | 2.06 |  | inactive |  | 
32 | O=C(Nc1nc2[nH]cnc2c(=O)[nH]1)N1CCCCC1 | 29.4 |  | inactive |  | 
33 | Nc1nc(N)c(N)c(=O)[nH]1 |  |  |  |  | 0.1
34 | Nc1nc2nnccc2c(=O)[nH]1 | > 1000 |  | inactive |  | 
35 | O=c1[nH]c(NCCc2c[nH]cn2)nc2[nH]cnc12 | 300 | 1250 (≈ 5.1 mM) |  |  | 
36 | Nc1nc2nsnc2c(=O)[nH]1 | > 1000 |  | inactive |  | 
37 | Nc1nc2snnc2c(=O)[nH]1 | > 1000 | 156 (≈ 0.922 mM) |  |  | 
38 | CCCCNc1nc(N)nc2[nH]cnc12 | 12.3 | 313 (≈ 1.52 mM) |  |  | 
39 | Nc1nc(NCc2cccnc2)c2nc[nH]c2n1 | > 1000 | 625 (≈ 2.59 mM) |  |  | 
40 | CNc1nc2[nH]cnc2c(=O)[nH]1 | > 1000 |  | inactive |  | 
41 | Nc1nc(NCCCO)c2nc[nH]c2n1 | 0.63 |  | inactive |  | 
42 | NCCNc1nc(N)nc2[nH]cnc12 | > 1000 |  | inactive |  | 
